The subject of the experiment is MnG4C1 (DNA, G4) AGGGGGGGAGTTAGGGCGCACGTTAGGGGTGCTATTAGGG
Briefly: ThT fluorescence light-up, 492 nm. Particulars: 50 mM Tris-HCl pH 7.5, room temperature, 3 µM ThT, 1 mM aptamer.

From paper PMC10380348 (2023) come the findings set out here.

Regarding `Cc1ccc2c(c1)sc(-c1ccc(N(C)C)cc1)[n+]2C`, the binding entry is, setting by setting: (K+ 0-30 mM) “yes”; (Mn2+ 0-100 µM) “yes”.
